Reference: the supplement of paper PMC10733146

How the values were obtained:
Assay in all cases: viability relative to DMSO control (fraction); higher = less drug effect (more viable cells)
Conditions in all cases: 48 h
[1] = tested on: primary AML patient cells (S056)
How it was run: (§1)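 Viability was quantified by CellTiter-Glo luminescence and related to the median of 16 inner DMSO wells. Before that, primary mononuclear tumour cells, fresh or cryopreserved and Ficoll-isolated from blood or bone marrow or prepared from processed lymph node, were plated at 4 × 10^4 cells per well in 384-well plates containing pre-plated compounds at five concentrations, one well each. Plates were incubated in RPMI-1640 with penicillin/streptomycin, L-glutamine and human serum at 37 °C and 5% CO2 for 48 h.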

[2] = tested on: primary ALL patient cells (S048)
How it was run: as §1

[3] = tested on: primary AML patient cells (S012)
How it was run: as §1

[4] = tested on: primary CLL patient cells (S031)
How it was run: as §1

[5] = tested on: primary AML patient cells (S079)
How it was run: as §1

[6] = tested on: primary AML patient cells (S019)
How it was run: as §1

[7] = tested on: primary ALL patient cells (S088)
How it was run: as §1

[8] = tested on: primary MCL patient cells (S063)
How it was run: as §1

[9] = tested on: primary MCL patient cells (S041)
How it was run: as §1

[10] = tested on: primary AML patient cells (S011)
How it was run: as §1

[11] = tested on: primary FL patient cells (S022)
How it was run: as §1

[12] = tested on: primary AML patient cells (S006)
How it was run: as §1

[13] = tested on: primary AML patient cells (S085)
How it was run: as §1

[14] = tested on: primary FL patient cells (S087)
How it was run: as §1

O=C(Nc1cccc(C(F)(F)F)c1)Nc1cc(S(=O)(=O)NC2CC2)ccc1-c1ccsc1 [AGI-6780]
viability ([1]; 0.024 µM): 1.03
viability ([1]; 0.12 µM): 0.821
viability ([1]; 0.6 µM): 0.834
viability ([1]; 3 µM): 0.783
viability ([1]; 15 µM): 0.7
viability ([2]; 0.024 µM): 0.7
viability ([2]; 0.12 µM): 0.636
viability ([2]; 0.6 µM): 0.599
viability ([2]; 3 µM): 0.622
viability ([2]; 15 µM): 0.61
viability ([3]; 0.024 µM): 1.03
viability ([3]; 0.12 µM): 1.01
viability ([3]; 0.6 µM): 1
viability ([3]; 3 µM): 0.941
viability ([3]; 15 µM): 0.868
viability ([4]; 0.024 µM): 0.679
viability ([4]; 0.12 µM): 0.703
viability ([4]; 0.6 µM): 0.727
viability ([4]; 3 µM): 0.701
viability ([4]; 15 µM): 0.612
viability ([5]; 0.024 µM): 0.935
viability ([5]; 0.12 µM): 0.943
viability ([5]; 0.6 µM): 0.925
viability ([5]; 3 µM): 0.887
viability ([5]; 15 µM): 0.802
viability ([6]; 0.024 µM): 1.17
viability ([6]; 0.12 µM): 1.26
viability ([6]; 0.6 µM): 1.27
viability ([6]; 3 µM): 1.13
viability ([6]; 15 µM): 1.18
viability ([7]; 0.024 µM): 0.408
viability ([7]; 0.12 µM): 0.417
viability ([7]; 0.6 µM): 0.322
viability ([7]; 3 µM): 0.258
viability ([7]; 15 µM): 0.205
viability ([8]; 0.024 µM): 0.935
viability ([8]; 0.12 µM): 0.969
viability ([8]; 0.6 µM): 0.96
viability ([8]; 3 µM): 0.843
viability ([8]; 15 µM): 0.982
viability ([9]; 0.024 µM): 0.913
viability ([9]; 0.12 µM): 0.898
viability ([9]; 0.6 µM): 0.856
viability ([9]; 3 µM): 0.868
viability ([9]; 15 µM): 0.806
viability ([10]; 0.024 µM): 0.76
viability ([10]; 0.12 µM): 0.761
viability ([10]; 0.6 µM): 0.802
viability ([10]; 3 µM): 0.778
viability ([10]; 15 µM): 0.666
viability ([11]; 0.024 µM): 0.826
viability ([11]; 0.12 µM): 0.782
viability ([11]; 0.6 µM): 0.821
viability ([11]; 3 µM): 0.835
viability ([11]; 15 µM): 0.775
viability ([12]; 0.024 µM): 0.94
viability ([12]; 0.12 µM): 1.01
viability ([12]; 0.6 µM): 1.02
viability ([12]; 3 µM): 0.974
viability ([12]; 15 µM): 0.993
viability ([13]; 0.024 µM): 0.793
viability ([13]; 0.12 µM): 0.809
viability ([13]; 0.6 µM): 0.734
viability ([13]; 3 µM): 0.672
viability ([13]; 15 µM): 0.691
viability ([14]; 0.024 µM): 0.891
viability ([14]; 0.12 µM): 0.944
viability ([14]; 0.6 µM): 0.923
viability ([14]; 3 µM): 0.906
viability ([14]; 15 µM): 0.798

N#Cc1ccnc(N2C(=O)CC[C@H]2C(=O)N(c2cncc(F)c2)[C@H](C(=O)NC2CC(F)(F)C2)c2ccccc2Cl)c1 [AG-120]
viability ([1]; 0.024 µM): 0.866
viability ([1]; 0.12 µM): 0.833
viability ([1]; 0.6 µM): 0.72
viability ([1]; 3 µM): 0.74
viability ([1]; 15 µM): 0.577
viability ([2]; 0.024 µM): 0.828
viability ([2]; 0.12 µM): 0.865
viability ([2]; 0.6 µM): 0.735
viability ([2]; 3 µM): 1.01
viability ([2]; 15 µM): 0.745
viability ([3]; 0.024 µM): 1.03
viability ([3]; 0.12 µM): 1.06
viability ([3]; 0.6 µM): 1.04
viability ([3]; 3 µM): 0.987
viability ([3]; 15 µM): 0.985
viability ([4]; 0.024 µM): 0.982
viability ([4]; 0.12 µM): 0.912
viability ([4]; 0.6 µM): 0.773
viability ([4]; 3 µM): 0.807
viability ([4]; 15 µM): 0.715
viability ([5]; 0.024 µM): 0.978
viability ([5]; 0.12 µM): 0.983
viability ([5]; 0.6 µM): 0.879
viability ([5]; 3 µM): 0.959
viability ([5]; 15 µM): 0.844
viability ([6]; 0.024 µM): 1.43
viability ([6]; 0.12 µM): 1.43
viability ([6]; 0.6 µM): 0.934
viability ([6]; 3 µM): 1.34
viability ([6]; 15 µM): 0.833
viability ([7]; 0.024 µM): 0.727
viability ([7]; 0.12 µM): 0.745
viability ([7]; 0.6 µM): 0.533
viability ([7]; 3 µM): 0.7
viability ([7]; 15 µM): 0.499
viability ([8]; 0.024 µM): 1.16
viability ([8]; 0.12 µM): 1.1
viability ([8]; 0.6 µM): 0.929
viability ([8]; 3 µM): 1.15
viability ([8]; 15 µM): 0.789
viability ([9]; 0.024 µM): 0.99
viability ([9]; 0.12 µM): 1.01
viability ([9]; 0.6 µM): 0.928
viability ([9]; 3 µM): 1
viability ([9]; 15 µM): 0.886
viability ([10]; 0.024 µM): 1.76
viability ([10]; 0.12 µM): 0.843
viability ([10]; 0.6 µM): 0.852
viability ([10]; 3 µM): 0.785
viability ([10]; 15 µM): 0.657
viability ([11]; 0.024 µM): 0.858
viability ([11]; 0.12 µM): 0.833
viability ([11]; 0.6 µM): 0.838
viability ([11]; 3 µM): 0.905
viability ([11]; 15 µM): 0.777
viability ([12]; 0.024 µM): 1.07
viability ([12]; 0.12 µM): 1.13
viability ([12]; 0.6 µM): 0.986
viability ([12]; 3 µM): 1.08
viability ([12]; 15 µM): 0.901
viability ([13]; 0.024 µM): 1.07
viability ([13]; 0.12 µM): 1
viability ([13]; 0.6 µM): 0.959
viability ([13]; 3 µM): 1.03
viability ([13]; 15 µM): 0.886
viability ([14]; 0.024 µM): 0.946
viability ([14]; 0.12 µM): 0.984
viability ([14]; 0.6 µM): 0.911
viability ([14]; 3 µM): 1.01
viability ([14]; 15 µM): 0.892
